Reference: patent publication US7618984B2, “Sulfonamide compound” (Asahi Kasei Pharma Corporation, priority 2005, dated 2009)

Columns and labels:
neutrophils = assay: Neutrophil migration inhibitory action, Boyden Chamber, FMLP (Test Example 3); format: cell-based; details: 0.5 h, human neutrophils, FMLP 1 μM, 37° C., 30 minutes, read-out: IC50, compound concentration providing a migration inhibition ratio of 50%
Description: Neutrophils were isolated from 50 to 100 ml of peripheral blood collected from healthy human donors by the method described in Test Example 1 to obtain a cell suspension (8×10^6/ml). Subsequently, solutions of a test compound at various concentrations were introduced into wells of a 96-well plate in a volume of 125 μl per well, the cell suspension of an equivalent volume was added to it and the plate was preincubated at room temperature for 5 minutes. During the preincubation, FMLP (1 μM, Sigma) solution was added to the lower chamber to set Boyden Chamber, the preincubated cell suspension was added to the upper chamber in a volume of 200 μl per well, and the cells were allowed to migrate at 37° C. under 5% carbon dioxide for 30 minutes. The filter after the migration was collected, and the non-migrated cells adhered to the surface that faced the upper chamber were carefully wiped off. Then, the migrated cells on the back surface were stained with DifQuick dye solution (International Reagents), washed with water and dried, and then absorbance was measured at 595 nm. The inhibition ratio against migration (%) of a test compound was calculated by using the following equation: Migration inhibition ratio(%)=(1−Absorbance of the group with addition of test compound/Absorbance of the group without addition of test compound)×100
Further, the migration inhibitory ratio was calculated with changing the test compound concentration, and a compound concentration providing an inhibition ratio of 50% was obtained as IC50.

[1] = tested on: phosphorylation of myosin regulatory light chain; assay: Inhibitory action on phosphorylation of myosin regulatory light chain (Test Example 1); format: cell-based; details: Neutrophil, 5 min; human peripheral blood neutrophils, 25° C. for 5 minutes; read-out: IC50, compound concentration providing a phosphorylation inhibition ratio of 50% (myosin regulatory light chain)
Description: A volume of 50 to 100 ml of peripheral blood collected from healthy volunteers was centrifuged by using Mono-Poly separator solution (Dainippon Pharmaceutical) to prepare a neutrophil containing fraction. The neutrophils were washed with PBS(−) and resuspended in Hanks' Balanced Salt Solution (HBSS+, Gibco) to prepare a cell suspension (8×10^6/ml). The cell suspension was diluted to 5×10^6/ml, introduced into Eppendorf tubes in a volume of 0.4 ml each, then 0.1 ml each of solutions of a test compound at various concentrations were added to the suspension and allowed to react at 25° C. for 5 minutes. After the reaction, 0.1 ml of trichloroacetic acid solution was added to each reaction mixture, the reaction mixture was gently shaken and centrifuged at 12,000 rpm (4° C., 5 minutes), and the supernatant was removed. Subsequently, 3 μl of 1 M Tris solution was added to the residue, the mixture was further mixed with 50 μl of extraction buffer (8 M urea, 0.02% 2-mercaptoethanol, 0.002% bromophenol blue) and left stand at room temperature for 1 hour. Then, the reaction mixture was loaded on a spin column (0.45 μm, Millipore) to remove the insoluble solids and a sample buffer for SDS polyacrylamide gel electrophoresis (25 mM, Tris-HCl pH 6.8, 2.5% 2-mercaptoethanol, 2% sodium dodecylsulfate, 5% sucrose, 0.002% bromophenol blue as final concentrations) was added, and 10 μl of each sample was subjected to electrophoresis.
The gel after the electrophoresis was blotted on a nitrocellulose membrane (BioRad), blocked with 5% skim milk, and reacted successively with antibodies pLC1 (Sakurada K. et al, Am. J. Physiol., 274, C1563-C1572 (1998)), which specifically recognize the phosphorylated myosin regulatory light chain, and donkey anti-mouse IgG (Chemicon) conjugated with horseradish peroxidase. The band of the phosphorylated myosin regulatory light chain was detected on a film by using ECL Plus Kit (Amersham Pharmacia Biotech). This band was subjected to quantification using a densitometer. By using this value, the inhibitory ratio (%) for phosphorylation of the myosin regulatory light chain was calculated by using the following equation. Phosphorylation inhibition ratio(%)=1−(Band intensity of phosphorylated myosin regulatory light chain with addition of the test compound/Band intensity of phosphorylated myosin regulatory light chain without addition of the test compound)×100
Further, the phosphorylation inhibition ratio was calculated with changing the concentrations of the test compound, and a compound concentration providing an inhibition ratio of 50% was obtained as IC50.

[2] = tested on: rabbit normal intraocular pressure; assay: Intraocular pressure reducing action (Test Example 2); format: in vivo, Japanese white rabbit; details: Oryctolagus cuniculus, topical; 3 mM aqueous solution, 50 μl to the left eye; measured after 2, 4 and 6 hours; read-out: intraocular pressure reducing degree (max ΔIOP / intraocular pressure value immediately before administration × 100)
Description: A Japanese white rabbit having a body weight of about 2 kg was placed in a positioner and naturalized for one week before the experiment. An opthalmologic local anesthesant (Benoxil) was administered to both eyes, and then intraocular pressure was measured by using a tonometer (Classic 30, Solan). A 3 mM aqueous solution of a test compound was administered in a volume of 50 μl to the left eye, and the right eye was not treated (control eye). The intraocular pressure values were measured for the left and right eyes immediately before, and 2, 4 and 6 hours after the administration of the aqueous solution of the test compound, and the difference of the measured values for the left and right eyes was considered an intraocular pressure reduction value of the test medicament at each measurement time. The largest difference of the values for the left and right eyes among the measured values at the measurement times (after 2, 4 and 6 hours) was considered the maximum intraocular pressure reduction value (max ΔIOP) of each test medicament. The intraocular pressure reducing degree representing the intraocular pressure reducing action of each test medicament was calculated according to the following formula. Since rabbits show significant daily variation of intraocular pressure, daily variation is added when change of intraocular pressure is measured over time, and the intraocular pressure reducing action may be overestimated. Therefore, we used this calculation method of intraocular pressure reduction value in order to minimize the influence of the variation. Intraocular pressure reducing degree (%)=(max ΔIOP/Intraocular pressure value immediately before administration)×100

Row | Structure (SMILES) | IC50 (neutrophils) | IC50 [1] | inhibition in vivo at 3000 µM [2]
1 | O=S(=O)(c1cccc2cncc(Br)c12)N1CC[C@H](NCc2ccco2)C1 [Example 4-1, (S)-3-(2-Furylmethyl)amino-1-(4-bromo-5-isoquinolinesulfonyl)pyrrolidine] | < 10 µM | < 10 µM | ≥ 20%
2 | N[C@H]1CCN(S(=O)(=O)c2cccc3c(O)ncc(Br)c23)C1 [Example 7-1, (S)-3-Amino-1-(1-hydroxy-4-bromo-5-isoquinolinesulfonyl)pyrrolidine] | < 10 µM | < 10 µM | ≥ 20%
3 | C=Cc1cncc2cccc(S(=O)(=O)N3CC[C@H](N)C3)c12 [Example 9-1, (S)-3-Amino-1-(4-vinyl-5-isoquinolinesulfonyl)pyrrolidine] | 10 to 40 µM | < 10 µM | ≥ 20%
4 | C#Cc1cncc2cccc(S(=O)(=O)N3CC[C@H](N)C3)c12 [Example 10-1, (S)-3-Amino-1-(4-ethynyl-5-isoquinolinesulfonyl)pyrrolidine] | 10 to 40 µM | < 10 µM | ≥ 20%
5 | N[C@H]1CCN(S(=O)(=O)c2cccc3cncc(C4CC4)c23)C1 [Example 11-1, (S)-3-Amino-1-(4-cyclopropyl-5-isoquinolinesulfonyl)pyrrolidine] | 10 to 40 µM | < 10 µM | 5 to 10%
6 | N#Cc1cncc2cccc(S(=O)(=O)N3CC[C@H](N)C3)c12 [Example 13-1, (S)-3-Amino-1-(4-cyano-5-isoquinolinesulfonyl)pyrrolidine] | – | – | 5 to 10%
7 | Cc1cncc2cccc(S(=O)(=O)N3CCC[C@H](N)C3)c12 [Example 22-1, (S)-3-Amino-1-(4-methyl-5-isoquinolinesulfonyl)piperidine] | 10 to 40 µM | < 10 µM | 10 to 20%
8 | N[C@H]1CCN(S(=O)(=O)c2cccc3cncc(-c4cnoc4)c23)C1 [Example 24-1, (S)-3-Amino-1-[4-(4-isoxazolyl)-5-isoquinolinesulfonyl]pyrrolidine] | – | – | 5 to 10%
9 | N[C@H]1CCN(S(=O)(=O)c2cccc3c(O)ncc(F)c23)C1 [Example 29-1, (S)-3-Amino-1-(1-hydroxy-4-fluoro-5-isoquinolinesulfonyl)pyrrolidine] | – | – | 10 to 20%
10 | N[C@H]1CCN(S(=O)(=O)c2cccc3c(O)ncc(Cl)c23)C1 [Example 30-1, (S)-3-Amino-1-(1-hydroxy-4-chloro-5-isoquinolinesulfonyl)pyrrolidine] | – | – | ≥ 20%
11 | CN[C@H]1CCN(S(=O)(=O)c2cccc3c(O)ncc(Br)c23)C1 [Example 35-1, (S)-1-(1-Hydroxy-4-bromo-5-isoquinolinesulfonyl)-3-(methylamino)pyrrolidine] | – | – | 5 to 10%
12 | CN[C@@H]1CCN(S(=O)(=O)c2cccc3c(O)ncc(Cl)c23)C1 [Example 36-2, (R)-1-(1-Hydroxy-4-chloro-5-isoquinolinesulfonyl)-3-(methylamino)pyrrolidine] | – | – | 10 to 20%
13 | O=S(=O)(c1cccc2c(O)ncc(Br)c12)N1CC[C@H](NCc2ccco2)C1 [Example 38-1, (S)-1-(1-Hydroxy-4-bromo-5-isoquinolinesulfonyl)-3-(2-furylmethylamino)pyrrolidine] | – | – | 5 to 10%
14 | Nc1ncc(Cl)c2c(S(=O)(=O)N3CC[C@H](N)C3)cccc12 [Example 39-1, (S)-3-Amino-1-(1-amino-4-chloro-5-isoquinolinesulfonyl)pyrrolidine] | – | – | 10 to 20%
15 | CN[C@H]1CCN(S(=O)(=O)c2cccc3c(N)ncc(Cl)c23)C1 [Example 40-1, (S)-1-(1-Amino-4-chloro-5-isoquinolinesulfonyl)-3-(methylamino)pyrrolidine] | – | – | 5 to 10%
16 | CN[C@H]1CCN(S(=O)(=O)c2cccc3c(N)ncc(Br)c23)C1 [Example 42-1, (S)-1-(1-Amino-4-bromo-5-isoquinolinesulfonyl)-3-(methylamino)pyrrolidine] | – | – | 5 to 10%

Continued, in another order:

Row | IC50 (neutrophils) | IC50 [1] | Structure (SMILES) | inhibition in vivo at 3000 µM [2]
17 | 10 to 40 µM | < 10 µM | N[C@H]1CCN(S(=O)(=O)c2cccc3cncc(Br)c23)C1 [Example 1-1, (S)-3-Amino-1-(4-bromo-5-isoquinolinesulfonyl)pyrrolidine] | ≥ 20%
18 | 10 to 40 µM | < 10 µM | N[C@@H]1CCN(S(=O)(=O)c2cccc3cncc(Br)c23)C1 [Example 1-2, (R)-3-Amino-1-(4-bromo-5-isoquinolinesulfonyl)pyrrolidine] | ≥ 20%
19 | < 10 µM | < 10 µM | Cc1cncc2cccc(S(=O)(=O)N3CC[C@H](N)C3)c12 [Example 8-1, (S)-3-Amino-1-(4-methyl-5-isoquinolinesulfonyl)pyrrolidine] | ≥ 20%
20 | < 10 µM | < 10 µM | Cc1cncc2cccc(S(=O)(=O)N3CC[C@@H](N)C3)c12 [Example 8-2, (R)-3-Amino-1-(4-methyl-5-isoquinolinesulfonyl)pyrrolidine] | ≥ 20%
21 | – | 10 to 40 µM | Nc1cncc2cccc(S(=O)(=O)N3CC[C@H](N)C3)c12 [Example 12-1, (S)-3-Amino-1-(4-amino-5-isoquinolinesulfonyl)pyrrolidine] | 10 to 20%
22 | – | 10 to 40 µM | COc1cncc2cccc(S(=O)(=O)N3CC[C@H](N)C3)c12 [Example 15-1, (S)-3-Amino-1-(4-methoxy-5-isoquinolinesulfonyl)pyrrolidine] | 5 to 10%
23 | – | 10 to 40 µM | N[C@H]1CCN(S(=O)(=O)c2cccc3cncc(F)c23)C1 [Example 18-1, (S)-3-Amino-1-(4-fluoro-5-isoquinolinesulfonyl)pyrrolidine] | ≥ 20%
24 | 10 to 40 µM | < 10 µM | N[C@@H]1CCN(S(=O)(=O)c2cccc3cncc(Cl)c23)C1 [Example 19-2, (R)-3-Amino-1-(4-chloro-5-isoquinolinesulfonyl)pyrrolidine] | ≥ 20%
25 | – | 10 to 40 µM | N[C@H]1CCCN(S(=O)(=O)c2cccc3cncc(Cl)c23)C1 [Example 21-1, (S)-3-Amino-1-(4-chloro-5-isoquinolinesulfonyl)piperidine] | ≥ 20%
26 | – | 10 to 40 µM | N[C@@H]1CCCN(S(=O)(=O)c2cccc3cncc(Cl)c23)C1 [Example 21-2, (R)-3-Amino-1-(4-chloro-5-isoquinolinesulfonyl)piperidine] | 10 to 20%
